# Source: patent publication US20240307575A1, “METHODS FOR […] MATTER” (priority 2021, published 2024)
# Several values for one entry are separate records, joined by “and”; a condition that tells them apart may be missing. Equal values may be shown once. Read-outs that look alike come from different tables or passages of the source.
# How the values were obtained:
# Yeast & Molds = test: Example 4: yeast and molds count after NaDCC and/or H2O2 pulses; assay type: cell-based; conditions: control 152,000
# Procedure: (§1) Aqueous solutions of NaDCC at variating concentrations from 1% [w/w] up to 5% [w/w] were prepared. […] Table 5 describes various sterilants and their effects:
# (§2) Each pulse with disinfectant consisted of vacuum to 1 mbar, then introduction of a sterilant to 100 mbar, 6 minutes of keeping the sterilant at that pressure, introduction of air to 500 mbar, then vacuum.
# Total pathogen = test: Example 4: total pathogen count after NaDCC and/or H2O2 pulses; assay type: cell-based; conditions: for Total pathogen Count: control 490,000; for Fold-Reduction: versus control
# Procedure: as §1, §2
# total count [1] = test: Example 2, Table 3: total count after hydrogen peroxide pulses with air or ozone, with or without ozone preheat; assay type: cell-based; conditions: HPO to 75 mbar + air to 500 mbar 40° C. one pulse, control 130,000
# Procedure: (§3) In table 3, the samples were all preheated to, 40° C. Some of the samples, indicated “O3 preheat” were preheated in the presence of ozone at atmospheric pressure. […] Air was subsequently introduced to a pressure of 500 mbar. Then the chamber was evacuated.
# Yeast & Mold = conditions: for Yeast & Mold: HPO to 60 mbar 6 minutes, air 500 mbar 6 minutes, 40°, control 1,150,000; for Yeast & Mold Fold-Reduction: versus control
# Procedure: (§4) For two of the samples, no preheating was performed, and for two of the samples, preheating was performed. Preheating involved warming the plant matter in the chamber at 40° C. for 5 minutes. Either one or two pulses of sterilant were performed. All pulses were performed at 40°. Before each pulse, the pressure in the chamber was reduced to 1 mbar.
# (§5) Then, air was added and pressure was maintained at 500 mbar for 6 minutes.
# total count [2] = conditions: for Total Count: HPO to 60 mbar 6 minutes, air 500 mbar 6 minutes, 40°, control 1,350,000; for Total Count Fold-Reduction: versus control
# Procedure: as §4, §5
# yeasts & molds = test: Example 2, Table 3: yeast and mold count after hydrogen peroxide pulses with air or ozone, with or without ozone preheat; assay type: cell-based; conditions: HPO to 75 mbar + air to 500 mbar 40° C. one pulse, control 1,950
# Procedure: as §3
# Microbe mix (all 4) = conditions: 15% [w/w] hydrogen peroxide vapor, mean of batches 1-3
# Procedure: (§6) In this example, cannabis inflorescence (200 mg) was thoroughly sterilized, then inoculated by soaking in 30 ml of microbial suspension, using each of the microbes in the amounts described in table 7 below, including a microbe mix, consisting of a mixture of all 4 microbes in the table.
# (§7) After soaking each sample of inflorescence in the respective microbial suspension, each sample was air dried in a laminar flow dryer overnight for 18 hours and refrigerated until sterilization was initiated. Inflorescence was sterilized 24, 48 and 72 hours post inoculation, designated batch 1, batch 2 and batch 3, respectively. Microbial load analysis was performed after each sterilization day. Samples were also inoculated, and not sterilized, to serve as controls. A saline solution was applied to some of the samples instead of a microbial suspension, to serve as a control.
# (§8) Analysis of microbial count was performed to samples before and after sterilization, and each microbe count was determined using sub-samples of […] each from each sample, and was performed in triplicate. The sub-samples were ground in 20 ml of saline solution, seeded in a petri dish with agar, which were then incubated at 37° C. for 48 hours, for counting of colonies, to determine number of colony forming units (CFU) per cannabis sample. Logarithmic reduction of pathogen as compared to non-sterilized sample was determined.
# (§9) Samples of cannabis inflorescence (200 mg) were introduced into a vacuum chamber in either a top tray or a middle tray. The top tray was located in the uppermost location in the chamber, where the highest temperature is measured. The temperature was set to be maintained at 50° C., however, due to the fact that heat rises within the chamber, and that sterilant solution was introduced to the chamber as a vapor having a temperature of about 140-150° C., in some of the experiments the temperature in the uppermost chamber reached 54° C.±1° C. and in some 58° C.±2° C. Two or three pulses of disinfection were performed for each sample, and the results are described in Table 8. In each pulse, pressure was reduced to 3±2 mbar. […] Then, air was added and pressure was maintained at 500 mbar for 6 minutes at that pressure. The air was then removed from the chamber and the pressure reduced to 3±2 mbar. This process constitutes one pulse. One or two additional pulses were performed for samples, for a total of two pulses per sample, or three pulses per sample. In the final pulse, after initiating a vacuum, air was then introduced and the chamber was […] to a pressure of 1 atmosphere.
# (§10) For each pathogen, mean log reduction was calculated by log10 transformation of CFU values, analyzing each microbial treatment process separately. Sterilization processes were compared with a 1-way ANOVA on log transformed data.
# Pseudomonas aeruginosa = conditions: 15% [w/w] hydrogen peroxide vapor, mean of batches 1-3
# Procedure: as §6, §7, §8, §9, §10
# Candida albicans = conditions: for mean log reduction: 15% [w/w] hydrogen peroxide vapor, mean of batches 1-3
# Procedure: as §6, §7, §8, §9, §10
# Aspergillus brasiliensis = conditions: for mean log reduction: 15% [w/w] hydrogen peroxide vapor, mean of batches 1-3
# Procedure: as §6, §7, §8, §9, §10
# E. Coli = conditions: 15% [w/w] hydrogen peroxide vapor, mean of batches 1-3
# Procedure: as §6, §7, §8, §9, §10
# yeast and mold = conditions: hydrogen peroxide solution 50% in water, 40° C. 40 ml + 1 m; control 20,800; listed as H2O2
# Procedure: (§11) A control sample was used, which was not treated, to show microbial load before treatment.
# (§12) In each of the trials above, the H2O2 solution was introduced over a period of 3 minutes until a pressure of 70-100 mbar, by introduction of 4 injections, each injection of 10 ml. […] Some of the batches indicating “vent 700” were slowly vented to 700 mbar with air.
# total count [3] = conditions: hydrogen peroxide solution 50% in water, control 208,800
# Procedure: as §11, §12
# [4] = Preheat (40° C. for 5 minutes), one pulse
# [5] = Preheat (40° C. for 5 minutes), two pulses
structure (smiles),measurement,setting,value
"O=c1nc([O-])n(Cl)c(=O)n1Cl.[Na+] [NaDCC, Sodium dichloroisocyanurate]",Yeast & Molds Count,"Yeast & Molds; NaDCC 1% [w/w], 1 pulse","10,857"
same,Yeast & Molds Count,"Yeast & Molds; NaDCC 1% [w/w], 2 pulses","5,553"
same,Yeast & Molds Count,"Yeast & Molds; NaDCC 2% [w/w], 1 pulse","7,600"
same,Yeast & Molds Count,"Yeast & Molds; NaDCC 2% [w/w], 2 pulses","3,436"
same,Yeast & Molds Count,"Yeast & Molds; NaDCC 5% [w/w], 1pulse","10,133"
same,Yeast & Molds Count,"Yeast & Molds; NaDCC 5% [w/w], 2 pulses","12,667"
same,Total pathogen Count,"Total pathogen; NaDCC 1% [w/w], 1 pulse","35,100"
same,Fold-Reduction,"Total pathogen; NaDCC 1% [w/w], 1 pulse",14
same,Total pathogen Count,"Total pathogen; NaDCC 1% [w/w], 2 pulses","17,900"
same,Fold-Reduction,"Total pathogen; NaDCC 1% [w/w], 2 pulses",27
same,Total pathogen Count,"Total pathogen; NaDCC 2% [w/w], 1 pulse","24,500"
same,Fold-Reduction,"Total pathogen; NaDCC 2% [w/w], 1 pulse",20
same,Total pathogen Count,"Total pathogen; NaDCC 2% [w/w], 2 pulses","11,075"
same,Fold-Reduction,"Total pathogen; NaDCC 2% [w/w], 2 pulses",44
same,Total pathogen Count,"Total pathogen; NaDCC 5% [w/w], 1pulse","32,667"
same,Fold-Reduction,"Total pathogen; NaDCC 5% [w/w], 1pulse",15
same,Total pathogen Count,"Total pathogen; NaDCC 5% [w/w], 2 pulses","40,833"
same,Fold-Reduction,"Total pathogen; NaDCC 5% [w/w], 2 pulses",12
OO [hydrogen peroxide],TC,total count [1]; sample weight 100 gr,"11,000 cfu/ml"
same,TC,total count [1]; sample weight 300 gr,"48,000 cfu/ml"
same,Yeast & Mold,"Yeast & Mold; No preheat, one pulse","19,828 cfu/ml"
same,Yeast & Mold Fold-Reduction,"Yeast & Mold; No preheat, one pulse",58
same,Yeast & Mold,"Yeast & Mold; No preheat, two pulses","3,249 cfu/ml"
same,Yeast & Mold Fold-Reduction,"Yeast & Mold; No preheat, two pulses",354
same,Yeast & Mold,Yeast & Mold; [4],"3,433 cfu/ml"
same,Yeast & Mold,Yeast & Mold; [5],415 cfu/ml
same,Yeast & Mold Fold-Reduction,"Yeast & Mold; Preheat, one pulse",335
same,Yeast & Mold Fold-Reduction,"Yeast & Mold; Preheat, two pulses","2,770"
same,Total Count,"total count [2]; No preheat, one pulse","5,556 cfu/ml"
same,Total Count Fold-Reduction,"total count [2]; No preheat, one pulse",243
same,Total Count,"total count [2]; No preheat, two pulses","3,082 cfu/ml"
same,Total Count Fold-Reduction,"total count [2]; No preheat, two pulses",438
same,Total Count,total count [2]; [4],"2,316 cfu/ml"
same,Total Count,total count [2]; [5],"1,028 cfu/ml"
same,Total Count Fold-Reduction,"total count [2]; Preheat, one pulse",583
same,Total Count Fold-Reduction,"total count [2]; Preheat, two pulses","1,313"
same,"decontamination, reduction of microbes",total count [2]; pre-heating stage and two sterilant pulses combined,over 3 orders of magnitude
same,Yeast & Molds Count,"Yeast & Molds; 50% H2O2, 2 pulses","2,492"
same,Y&M,yeasts & molds; sample weight 100 gr,100 cfu/ml
same,Y&M,yeasts & molds; sample weight 300 gr,30 cfu/ml
same,mean log reduction,"Microbe mix (all 4); 2 pulses, Middle tray",2.8
same,mean log reduction,"Microbe mix (all 4); 2 pulses, Top tray",5.5
same,mean log reduction,"Microbe mix (all 4); 3 pulses, Middle tray",5.1
same,mean log reduction,"Microbe mix (all 4); 3 pulses, Top tray",7.0
same,mean log reduction,"Pseudomonas aeruginosa; 2 pulses, Middle tray",3.7
same,mean log reduction,"Pseudomonas aeruginosa; 2 pulses, Top tray",5.3
same,mean log reduction,"Pseudomonas aeruginosa; 3 pulses, Middle tray",4.7
same,mean log reduction,"Pseudomonas aeruginosa; 3 pulses, Top tray",7.2
same,mean log reduction,"Candida albicans; 2 pulses, Middle tray",2.8
same,mean log reduction,"Candida albicans; 2 pulses, Top tray",6.3
same,mean log reduction,"Candida albicans; 3 pulses, Middle tray",6.0
same,mean log reduction,"Candida albicans; 3 pulses, Top tray",6.3
same,reduction in microbial count,"Candida albicans; top tray, both 2 and 3 pulses",≥ 6 fold
same,mean log reduction,"Aspergillus brasiliensis; 2 pulses, Middle tray",2.0
same,mean log reduction,"Aspergillus brasiliensis; 2 pulses, Top tray",3.3
same,mean log reduction,"Aspergillus brasiliensis; 3 pulses, Middle tray",2.2
same,mean log reduction,"Aspergillus brasiliensis; 3 pulses, Top tray",3.3
same,reduction in microbial count after treatment,Aspergillus brasiliensis; sterilized at 24 hours post inoculation,5 log
same,mean log reduction,"E. Coli; 2 pulses, Middle tray",3.5
same,mean log reduction,"E. Coli; 2 pulses, Top tray",3.5
same,mean log reduction,"E. Coli; 3 pulses, Middle tray",4.3
same,mean log reduction,"E. Coli; 3 pulses, Top tray",4.8
same,Total pathogen Count,"Total pathogen; 50% H2O2, 2 pulses","8,033"
same,Fold-Reduction,"Total pathogen; 50% H2O2, 2 pulses",61
same,Y&M,yeast and mold,"2,600 cfu/ml and 2,500 cfu/ml"
same,TC,"total count [3]; 30° C. 40 ml, 200 g inflorescence","31,000 cfu/ml"
same,TC,"total count [3]; 40° C. 40 ml + 1 m + Vent700, listed as H2O2","12,000 cfu/ml and 19,000 cfu/ml"
same,TC,"total count [3]; 40° C. 40 ml, listed as H2O2","15,000 cfu/ml and 10,000 cfu/ml"
